The target of one test is T1, GSDMD (Homo sapiens, UniProt P57764).
T1 construct: host or cells: THP1-Dual cells (human monocytic reporter line)
T1 sequence (P57764 1-484): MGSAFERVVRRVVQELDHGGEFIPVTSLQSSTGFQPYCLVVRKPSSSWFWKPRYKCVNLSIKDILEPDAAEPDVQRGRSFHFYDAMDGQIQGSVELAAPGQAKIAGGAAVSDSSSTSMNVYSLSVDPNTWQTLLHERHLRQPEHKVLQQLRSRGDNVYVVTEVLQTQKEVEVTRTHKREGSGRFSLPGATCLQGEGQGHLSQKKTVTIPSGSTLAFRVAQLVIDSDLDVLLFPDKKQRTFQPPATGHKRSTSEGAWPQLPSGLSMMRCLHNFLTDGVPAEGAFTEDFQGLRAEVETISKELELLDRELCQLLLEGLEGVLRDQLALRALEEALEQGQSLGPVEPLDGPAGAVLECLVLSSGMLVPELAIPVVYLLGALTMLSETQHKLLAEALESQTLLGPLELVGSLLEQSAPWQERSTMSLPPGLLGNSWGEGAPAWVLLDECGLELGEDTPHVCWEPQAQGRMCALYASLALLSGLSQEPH
Kind of test: Western blot of GSDMD cleavage in THP-1 cells. The test is classed as cell-based. Here is the method: Cells were collected and lysates prepared using total lysis buffer (50 mM Tris-HCl, pH 8.0; 150 mM NaCl; 1% Triton X-100; 1% SDS). The supernatant was obtained by centrifuging at 10,000 RPM for 10 minutes at 4° C. using a benchtop PCR centrifuge. Protein quantification was performed using the Bio-Rad DC Protein Assay Kit (Bio-Rad, NC, USA). Proteins were separated using 12% SDS-PAGE gels and transferred to a PVDF membrane using the Bio-Rad Trans-turbo semi-dry transfer apparatus at 25 V/1 A for 1 hour. The membrane was blocked with Tris-buffered-saline-Tween-20™ (TBST) containing 5% skim milk for 30 minutes at room temperature. The membrane was then probed overnight at 4° C. with rabbit monoclonal recombinant anti-GSDMD antibody (ab210070, Abcam), anti-cleaved N-terminal GSDMD antibody (ab215203, Abcam) and mouse anti-actin monoclonal antibody (MAB1501, MilliporeSigma) for human FL-GSDMD, CL-GSDMD and actin. The next day, the membranes were washed with TBST three times and probed with goat anti-rabbit (1706515, Bio-Rad) or goat anti-mouse (1706516, Bio-Rad) horseradish peroxidase-conjugated IgG for 1 hour at room temperature. The secondary antibodies were diluted in TBST containing 5% (w/v) skim milk at 1:5000 and the membranes washed with TBST before detecting the proteins of interest using the Clarity™ Western ECL Substrate (Bio-Rad) on a Chemidoc-IT Imager (UVP, Upland, CA, USA).
On the technique in general: Immunoblotting shows a protein as a band on a membrane.

Another test relates to IRF pathway. The test is classed as cell-based, human.
Another test concerns M3-9-M^OVA tumours. Kind of test: Orthotopic M3-9-M^OVA rhabdomyosarcoma in IMDM-CR mice: immune surveillance, overall survival. The test is classed as in vivo, mouse.
The subject of test [1] is GSDMD-mediated anti-tumour immunity. Kind of test: Orthotopic M3-9-M^OVA RMS in WT vs GSDMD-KO mice. The test is classed as in vivo, mouse. The source says:
It was hypothesized that the HPP metabolite enhances cancer immunity by targeting a critical signalling protein involved in the NF-κB pathway. […] Through nonparametric analysis of the response curves (NPARC) (Mol. Cell. Proteomics 18, (2019)), 647 potential protein targets of 3,2-HPP metabolite were identified (FIG. 10b). To narrow down the investigation, GSDMD was focused on (FIG. 10c, d), which is a cell membrane pore-forming protein that plays a critical role in inflammasome pathway, IL-1β release and tumour immunity (Cell Rep. 34, (2021); Cell Res. 25, 1285-98 (2015); J. Immunother. Cancer 10, (2022); Cell Rep. 41, (2022); Int. Immunopharmacol. 74, (2019); J. Dig. Dis. 19, (2018); Int. J. Biol. Sci. 17, (2021); Nat. Commun. 13, 1-20 (2022); BMC Cancer 20, (2020); Oncogene 41, 5092-5106 (2022)). A correlation between the expression of inflammasome genes, GSDMD and NF-κB1 in tumour infiltrated immune cells was observed (FIG. 11). Whether 3,2-HPP targets GSDMD-mediated anti-tumour immunity was validated by orthotopically implanting M3-9-M^OVA RMS into the gastrocnemius muscle of male C57BL/6NJ (WT) and C57BL/6N-Gsdmdem4Fcw/J (KO) mice (FIG. 10e).

Another test relates to M3-9-M tumours. Kind of test: Orthotopic M3-9-M rhabdomyosarcoma: tumour immune surveillance, growth, overall survival.

Protocol for M3-9-M tumours: Tumour cells were orthotopically implanted into 6-8 week old mice. […] For experiments with rhabdomyosarcoma models, mice were orthotopically implanted with 1.5×10^5 M3-9-M or M3-9-M^OVA cells in 50 μL of PBS into the right-behind leg gastrocnemius muscle using an insulin syringe. RMS tumour volume was calculated by subtracting the volume of the gastrocnemius muscle before tumour implantation from the volume after tumour implantation (length×width×height). […] Tumour measurements were taken twice weekly using skin calipers, from implantation day to either experimental or humane endpoints.
Metabolite compounds were obtained from Sigma-Aldrich and prepared into metabolite stock solutions by dissolving them into UltraPure™ DNase/RNase-Free Distilled Water (Invitrogen™) with 1.0N NaOH (Sigma). The pH of the stock solutions was adjusted to 7.4-7.6 and determination of the endotoxin level of the solutions was completed through a limulus amebocyte lysate (LAL) test. […] To test the metabolite effects on anti-tumour immunity, 100 μL of the metabolite at 83 mg/kg bodyweight per mouse was administered intraperitoneally every 48 hours for seven doses. […] Three doses of 250 μg of either anti-PD-1 or anti-PD-L1 were administered intraperitoneally post tumour implantation on day 10, 13 and 16. To neutralize CD8 T cell in mice, anti-CD8 (clone 2.43; BioXcell) monoclonal antibody was used. 250 μg of anti-CD8 antibody in PBS per mouse was injected intraperitoneally 7 and 1 day before tumour implantation, followed by administering 100 μg of anti-CD8 in PBS into the mice on day 3, 7, and 10.

With `O=C(O)CCc1ccccc1O` [Compound I-1, 3-(2-hydroxyphenyl)propanoic acid], the “GSDMD cleavage in the presence of LPS or LPS+NG stimulation” value at GSDMD is on record as “facilitating gasdermin D cleavage”. For the same compound, the “IRF pathway activation combined with PRR agonists” value with IRF pathway is “potentiate”. Moreover, the “overall survival, treatment initiated seven days after implantation” value in the test on M3-9-M^OVA tumours (IMDM-CR mice, M3-9-M^OVA, treatment started 7 days after implantation) is “still effective”. Moreover, in the test on M3-9-M^OVA tumours (male IMDM-CR mice, i.p. treatment from day 1 post-implantation), the “immune surveillance of M3-9-M^OVA tumours (overall survival)” value was “enhance the immune surveillance”. Also, the “effect on tumours implanted in GSDMD-KO mice” value in test [1] (male C57BL/6N-Gsdmdem4Fcw/J (KO) mice) was “had no effect”. In addition, the overall survival entry in test [1] (male C57BL/6NJ (WT) mice) was “increased overall survival”; in the test on M3-9-M tumours (female IMDM-JAX mice, M3-9-M tumours, i.p. 3,2-HPP), “increased the overall survival”. Besides, the tumour growth entry in test [1] (male C57BL/6NJ (WT) mice) was “decreased tumour growth”. For the same compound, the “overall survival, combination with ABX vs either treatment alone” value in the test with M3-9-M tumours (female IMDM-CR mice, M3-9-M tumours, ABX plus 3,2-HPP) is listed as “even higher overall survival”. Further, the “overall survival, combination with anti-PD-1 vs anti-PD-1 alone” value in the test on M3-9-M tumours (female IMDM-CR mice, M3-9-M tumours, 3,2-HPP i.p. plus anti-PD-1) is listed as “further improvement”. For the same compound, the “efficacy of treatment after depletion of CD8 T cells” value in the test on M3-9-M tumours (female IMDM-CR mice, M3-9-M, anti-CD8 neutralizing antibody (clone 2.43)) was “abrogated the efficacy”. Moreover, the “immune surveillance of M3-9-M tumours (overall survival)” value in the test on M3-9-M tumours (female IMDM-CR mice, i.p. treatment from day 1 post-implantation vs vehicle) was “enhance the immune surveillance”. Further, in the test with M3-9-M tumours (female IMDM-JAX mice on ABX-supplemented drinking water, M3-9-M tumours), the “effect on ABX-reduced immune surveillance” value is “counteracted the negative effect of ABX”. The “response of non-immunogenic M3-9-M tumours to treatment” value in the test with M3-9-M tumours (male IMDM-CR mice, i.p. treatment from day 1) was “did not respond”.

Source of the values: US20260272865A1, “HYDROXYPHENYL PROPANOATE COMPOUNDS FOR TUMOUR IMMUNOTHERAPY, COMPOSITIONS AND USES THEREOF” (UTI LIMITED PARTNERSHIP, priority 2023, published 2026).
